According to US9809623B2, “α4β7 peptide monomer and dimer antagonists” (Protagonist Therapeutics, Inc., priority 2014, dated 2017):
Numbered stars: 1 amine (or outer) side, 2 acyl side, 3 side chain; on linkers, the order of the positions; unused ones are H or OH. Bridge positions count the residues as written; N and C are the ends. Square brackets hold non-standard residues; d marks the D form. Peptide text beside a SMILES is read from it. I, II: the chains in the order shown. X1 = O=C(CCOCCOCCOCCOCCOCCOCCOCCOCCOCCOCCOCCOCCOCCOCCOCCOCCOCCOCCOCCOCCOCCOCCOCCOCCOCCOCCC(=O)[*:2])[*:1]; NMeR = CN[C@@H](CCCNC(=N)N)C(=O)O

How the values were obtained:
[1] = system: cell types in human whole blood; assay: FACS binding specificity in human whole blood; assay type: cell-based; conditions: 1 nM, 1 mM MnCl2
Procedure: To further evaluate the selectivity of Peptide X in human blood, the fluorescent dye Alexa 647 was conjugated to Peptide X at the same position used for attaching biotin. […] Heparinized human whole blood was supplemented with 1 mM MnCl2, and stained with the Peptide X-Alexa 647 conjugate or biotinylated vedolizumab for 1 hour at room temperature. The samples were fixed (red blood cells lysed) and washed. The vedolizumab samples were stained separately with streptavidin Alexa 647 for stain for 30 minutes at room temperature. FACS analysis was used to assess binding of the peptide or vedolizumab to a broad panel of cell types including NK cells, basophils, monocytes, eosinophils, neutrophils, CD4 naïve T cells, CD4 memory T cells, CD8 naïve T cells, CD8 memory T cells, and B cells. […] The binding specificity for vedolizmab shown in Table 7 is also very similar to that reported in the literature (Soler et al, JPET 330:864-875, 2009).

αEβ7 integrin = assay: FACS binding in cynomolgus monkey blood (α4β7 / αEβ7 expressing cells); assay type: cell-based; conditions: cyno blood, 1 nM
Procedure: Blood from cynomolgus monkeys was also analyzed by FACS.
Binding to αEβ7 integrin in cyno blood was also tested. Cyno blood was incubated with 1 nM Peptide X-Alexa 647, and cells expressing α4β7 or αEβ7 were analyzed by FACS. […] Binding to α4β7 was specific, because it could be blocked in the presence of a large excess (1 uM) of unlabeled Peptide X. Therefore under these conditions, it was concluded that Peptide X binds α4β7, not αEβ7.

α4β7 integrin = α4β7 integrin (Homo sapiens, UniProt P13612+P26010, DEL724-798); assay: Surface plasmon resonance (SPR), binding of soluble α4β7 integrin to immobilized biotin-labeled ligand
Excerpt: Surface plasmon resonance (SPR) was used to further evaluate the binding properties of Peptide X. An analog of Peptide X (Peptide X-biotin), which contains a biotin group attached to Peptide X via a PEG linker, was synthesized. Another peptide dimer having the following structure, which is closely related to Peptide X, was also synthesized and biotin-labeled:
• (Peptide Z). Vedolizumab was also chemically biotinylated. Peptide X-biotin, Peptide Z-biotin, or biotin-labeled vedolizumab antibody was immobilized to a streptavidin coated SPR chip, and the binding of soluble α4β7 integrin was measured. […] This half-life is quite long, and may be caused by a tight association between the peptide and the bound Mn^2+ metal ion on the integrin. […] In addition, the KD for Peptide X-biotin was substantially lower than that for Peptide Z-biotin.

[2] = Simulated Intestinal Fluid (SIF) Stability Assay; assay type: in vitro ADME, porcine; conditions: pig, simulated intestinal fluid (SIF) with 1% porcine pancreatin, pH 6.5, Table 4-C, t1/2; > means assay stopped at that time; read-out: SIF (porcine) Min
Method in brief: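 Peptides (22 μM final) incubated at 37 °C in FASSIF (pH 6.5) with 1% porcine pancreatin; aliquots quenched at various times and analyzed by LC-MS/MS against internal standard. Half-life from first-order exponential decay fit of percent remaining.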

[3] = Simulated Gastric Fluid (SGF) Assay; assay type: in vitro ADME; conditions: pig, simulated gastric fluid (SGF) with porcine pepsin, pH 2; Table 4-C, t1/2
Procedure: SGF was prepared by adding 20 mg NaCl, 32 mg porcine pepsin (MP Biochemicals, catalog 02102599), and 70 μl HCl to 10 ml water (final pH=2). Aliquots of SGF (0.5 ml each) were pre-warmed at 37° C. For each peptide tested, to start the reaction, 1 μl of peptide stock solution (10 mM in DMSO) was added to 0.5 ml SGF and thoroughly mixed such that the final peptide concentration was 20 μM. The reactions were incubated at 37° C. with gentle shaking. At each time point (0, 15, 30, 60 min), 50 μl aliquots were removed and added to 200 ul acetonitrile containing 0.1% formic acid to quench the reaction. Samples were stored at 4° C. until the end of the experiment and centrifuged at 10,000 rpm for 5 minutes. Aliquots of the supernatant were removed, diluted 1:1 into distilled water containing internal standard, and analyzed by LCMS/MS. Percent remaining at each timepoint was calculated based on the peak area response ratio of test compound to internal standard. Time 0 was set to 100%, and all later timepoints were calculated relative to time 0. Half-lives were calculated by fitting to a first-order exponential decay equation using GraphPad.

Plasma Stability Assay = assay type: in vitro ADME; conditions: rat, Table 4-C, t1/2
Procedure: 0.5 mL of rat plasma (one tube per peptide, volume depends on how many time points are to be collected, 50 μL per time point) was added to each well of a 96-well polypropylene plate, and the tubes were incubated in a heated water bath, preset to 37° C. with gentle shaking. 1 μL of 10 mM peptide stock solution was added to each tub, and then 200 μL of Acetonitrile w/0.1% Formic Acid was added to each tube (1:4). Samples were collected at the following time points: 0, 10, 30, 45, 60, 120, 180 mins. When all time points were collected, the plate was centrifuged at 5000 rpm for 5 mins. LCM analysis was performed by pipetting 100 μL of each sample to appropriate well of a 96-well deep plate. 100 μL of an internal standard peptide (1 ug/mL) was added in Mobile Phase A to each well. The plate was vortexed and injected

Chain of α4β7 integrin (P13612 34-977 limits assumed, stated change not applied): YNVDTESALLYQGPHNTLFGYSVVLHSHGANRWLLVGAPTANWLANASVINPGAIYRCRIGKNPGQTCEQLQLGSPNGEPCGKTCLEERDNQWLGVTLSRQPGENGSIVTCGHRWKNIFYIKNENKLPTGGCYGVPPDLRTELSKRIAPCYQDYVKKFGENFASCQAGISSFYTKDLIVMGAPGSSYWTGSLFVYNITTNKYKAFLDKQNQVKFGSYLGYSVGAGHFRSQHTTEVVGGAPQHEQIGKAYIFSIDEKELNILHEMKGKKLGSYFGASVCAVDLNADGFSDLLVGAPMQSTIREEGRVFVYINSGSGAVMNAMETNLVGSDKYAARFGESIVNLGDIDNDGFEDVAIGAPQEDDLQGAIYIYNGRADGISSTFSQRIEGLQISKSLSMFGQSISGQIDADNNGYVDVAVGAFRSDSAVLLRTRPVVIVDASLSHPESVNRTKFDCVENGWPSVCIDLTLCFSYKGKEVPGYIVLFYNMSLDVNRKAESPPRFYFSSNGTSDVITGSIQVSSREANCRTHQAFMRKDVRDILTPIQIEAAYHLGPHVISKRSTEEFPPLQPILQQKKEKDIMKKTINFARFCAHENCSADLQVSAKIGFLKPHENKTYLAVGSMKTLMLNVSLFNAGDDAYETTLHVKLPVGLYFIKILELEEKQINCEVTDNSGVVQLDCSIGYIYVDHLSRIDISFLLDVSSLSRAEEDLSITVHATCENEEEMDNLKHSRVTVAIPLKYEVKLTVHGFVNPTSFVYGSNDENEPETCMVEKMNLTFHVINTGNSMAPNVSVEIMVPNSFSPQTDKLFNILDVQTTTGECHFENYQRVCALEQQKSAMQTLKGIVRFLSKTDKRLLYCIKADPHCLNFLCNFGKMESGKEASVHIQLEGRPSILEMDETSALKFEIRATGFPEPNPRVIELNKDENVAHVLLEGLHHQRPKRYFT
Chain of α4β7 integrin (P26010 20-723 limits assumed, stated change not applied): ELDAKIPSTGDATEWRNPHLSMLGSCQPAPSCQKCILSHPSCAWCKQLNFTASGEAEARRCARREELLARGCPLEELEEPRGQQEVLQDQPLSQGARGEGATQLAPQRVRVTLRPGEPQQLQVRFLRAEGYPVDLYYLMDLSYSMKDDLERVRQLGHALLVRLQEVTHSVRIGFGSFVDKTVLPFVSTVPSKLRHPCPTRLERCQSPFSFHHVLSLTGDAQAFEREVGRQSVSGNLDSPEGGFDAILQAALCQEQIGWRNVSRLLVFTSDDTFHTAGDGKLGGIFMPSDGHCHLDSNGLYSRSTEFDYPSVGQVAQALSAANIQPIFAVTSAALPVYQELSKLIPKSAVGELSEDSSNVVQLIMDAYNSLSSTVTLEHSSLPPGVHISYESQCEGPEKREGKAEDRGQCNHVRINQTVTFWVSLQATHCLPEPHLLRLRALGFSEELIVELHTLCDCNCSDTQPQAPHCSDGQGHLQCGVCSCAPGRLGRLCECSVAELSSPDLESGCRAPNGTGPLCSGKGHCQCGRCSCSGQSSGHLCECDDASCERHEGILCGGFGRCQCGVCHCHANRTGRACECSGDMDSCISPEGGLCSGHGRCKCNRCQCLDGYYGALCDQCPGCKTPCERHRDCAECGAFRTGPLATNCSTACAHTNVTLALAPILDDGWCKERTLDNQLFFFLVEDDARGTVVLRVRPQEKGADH

CC(=O)N[C@@H]1C(=O)N(C)[C@@H](CCCNC(=N)N)C(=O)N[C@@H](CO)C(=O)N[C@@H](CC(=O)O)C(=O)N[C@@H]([C@@H](C)O)C(=O)N[C@@H](CC(C)C)C(=O)N[C@H](C(=O)N[C@@H](Cc2ccc(C(C)(C)C)cc2)C(=O)N[C@@H](CCC(=O)O)CC(=O)N[C@H](CCCCNC(=O)CN(CC(=O)NCCCC[C@@H](NC(=O)C[C@H](CCC(=O)O)NC(=O)[C@H](Cc2ccc(C(C)(C)C)cc2)NC(=O)[C@H]2NC(=O)[C@H](CC(C)C)NC(=O)[C@H]([C@@H](C)O)NC(=O)[C@H](CC(=O)O)NC(=O)[C@H](CO)NC(=O)[C@H](CCCNC(=N)N)N(C)C(=O)[C@@H](NC(C)=O)C(C)(C)SSC2(C)C)C(N)=O)C(=O)CCNC(=O)CCCCCC2(C)C(=CC=CC=CC3=[N+](CCCS(=O)(=O)[O-])c4ccc(S(=O)(=O)O)cc4C3(C)C)N(CCCS(=O)(=O)O)c3ccc(S(=O)(=O)O)cc32)C(N)=O)C(C)(C)SSC1(C)C (single isomer, unassigned) [Peptide X-Alexa 647]
Percent positive staining, Basophils [1]: 87% | Percent positive staining, CD4 memory T cells [1]: 20% | Percent positive staining, CD4 naïve T cells [1]: 51% | Percent positive staining, CD8 memory T cells [1]: 36% | Percent positive staining, CD8 naïve T cells [1]: 52% | Percent positive staining, CD19+ B cells [1]: 78% | Percent positive staining, Eosinophils [1]: 92% | Percent positive staining, Monocytes [1]: 7% | Percent positive staining, NK cells CD16+ 56+ [1]: 45% | Percent positive staining, Neutrophils [1]: 0.35% | Binding to α4β7+ and αEβ7+ CD4 memory T cells (αEβ7 integrin): bound to α4β7^+, but not αEβ7^+ cells

CC(=O)N[C@@H]1C(=O)N(C)[C@@H](CCCNC(=N)N)C(=O)N[C@@H](CO)C(=O)N[C@@H](CC(=O)O)C(=O)N[C@@H]([C@@H](C)O)C(=O)N[C@@H](CC(C)C)C(=O)N[C@H](C(=O)N[C@@H](Cc2ccc(C(C)(C)C)cc2)C(=O)N[C@@H](CCC(=O)O)CC(=O)N[C@H](CCCCNC(=O)CN(CC(=O)NCCCC[C@@H](NC(=O)C[C@H](CCC(=O)O)NC(=O)[C@H](Cc2ccc(C(C)(C)C)cc2)NC(=O)[C@H]2NC(=O)[C@H](CC(C)C)NC(=O)[C@H]([C@@H](C)O)NC(=O)[C@H](CC(=O)O)NC(=O)[C@H](CO)NC(=O)[C@H](CCCNC(=N)N)N(C)C(=O)[C@@H](NC(C)=O)C(C)(C)SSC2(C)C)C(N)=O)C(=O)CCNC(=O)CCOCCOCCOCCOCCNC(=O)CCCC[C@@H]2SC[C@@H]3NC(=O)N[C@@H]32)C(N)=O)C(C)(C)SSC1(C)C [Peptide X-biotin]
KD lower than that for biotin-labeled vedolizumab (α4β7 integrin): 3.8 fold | kd (α4β7 integrin): 0.0000173 s⁻¹ | kon (α4β7 integrin; read-out: ka): 1120 M⁻¹ s⁻¹

CC(=O)N[C@H]1CSSC[C@@H](C(=O)N[C@@H](CCCCNC(=O)CCOCCOCCOCCOCCOCCOCCOCCOCCOCCOCCOCCOCCOCCOCCOCCOCCOCCOCCOCCOCCOCCOCCOCCOCCOCCOCCC(=O)NCCCC[C@H](NC(=O)[C@@H]2CSSC[C@H](NC(C)=O)C(=O)N(C)[C@@H](CCCNC(=N)N)C(=O)N[C@@H](CO)C(=O)N[C@@H](CC(=O)O)C(=O)N[C@@H]([C@@H](C)O)C(=O)N[C@@H](CC(C)C)C(=O)N2)C(=O)O)C(=O)O)NC(=O)[C@H](CC(C)C)NC(=O)[C@H]([C@@H](C)O)NC(=O)[C@H](CC(=O)O)NC(=O)[C@H](CO)NC(=O)[C@H](CCCNC(=N)N)N(C)C1=O [compound 200, (Ac-C-N-Me-R-S-D-T-L-C-K-OH)2-PEG25] (I: Ac-C[NMeR]SDTLCK-OH / II: Ac-C[NMeR]SDTLCK-OH; disulfide I:1-I:7, II:1-II:7 (inferred); linker I:8-II:8 via X1 (inferred))
half-life at 22 μM [2]: 0.133 h | half-life at 20 μM [3]: > 6 h | half-life at 20 μM (Plasma Stability Assay): 1.47 h

CC(=O)N[C@H]1CSSC(C)(C)[C@@H](C(=O)N[C@H](CCCCNC(=O)CN(CC(=O)NCCCC[C@@H](NC(=O)[C@H]2NC(=O)[C@H](CC(C)C)NC(=O)[C@H]([C@@H](C)O)NC(=O)[C@H](CC(=O)O)NC(=O)[C@H](CO)NC(=O)[C@H](CCCNC(=N)N)N(C)C(=O)[C@@H](NC(C)=O)CSSC2(C)C)C(N)=O)C(=O)CCN)C(N)=O)NC(=O)[C@H](CC(C)C)NC(=O)[C@H]([C@@H](C)O)NC(=O)[C@H](CC(=O)O)NC(=O)[C@H](CO)NC(=O)[C@H](CCCNC(=N)N)N(C)C1=O [compound 203, (Ac-C-N-Me-R-S-D-T-L-Pen-k-NH2)2-IDA]
half-life at 22 μM [2]: > 4.88 h | half-life at 20 μM [3]: > 6 h | half-life at 20 μM (Plasma Stability Assay): > 6 h
